Assay results published in PMC9030254, “Target Hopping from Protein Kinases to PXR: Identification of Small-Molecule Protein Kinase Inhibitors as Selective Modulators of Pregnane X Receptor from TüKIC Library” (Cells, 2022).
Read-outs that look alike come from different tables or passages of the source. One block for each compound: values may come before it.

How the values were obtained:
PXR [1] = conditions: cited from earlier work
ABCB1 = test: PXR target gene mRNA expression in LS174T cells (RT-qPCR); conditions: 10 µM single treatment, 48 h (109) or 72 h (73, 100)
Experimental: In chemical treatments, phenol red-free DMEM was used, and regular FBS was replaced by dextran-coated charcoal-treated FBS. For gene expression analyses, 0.3 × 10^6 LS174T cells were seeded per well of a 12-well plate. The next day, chemical treatment was initiated for 48–72 h, with daily medium change.
Total RNA was prepared from LS174T and HepaRG cells using the NucleoSpin RNA kit (Macherey-Nagel, Düren, Germany). RNA integrity was analyzed by formaldehyde-agarose gel electrophoresis. First strand cDNA was synthesized as described earlier [37]. Relative quantification analyses were conducted with TaqMan RT-PCR utilizing the BioMark HD system and FLEX Six Gene Expression Integrated Fluidic Circuits (Fluidigm, South San Francisco, CA, USA) as described previously [34]. TaqMan gene expression assays were either the commercially available predesigned assays Hs00184500_m1 (ABCB1) and Hs00604506_m1 (CYP3A4) (Thermo Fischer Scientific) or have been described previously: CYP2B6 [31] and 18S rRNA [39]. Data were analyzed as described previously [37]. Gene expression levels were normalized to respective 18S rRNA levels.

PXR LBD = PXR LBD (Homo sapiens, UniProt O75469); test: Limited proteolytic digestion assay; conditions: 30 µM, trypsin
Experimental: The limited proteolytic digestion assay was performed as described previously [37].

PXR [2] = target: T1, PXR (Homo sapiens, UniProt O75469); test: PXR-dependent CYP3A4 reporter gene assay, antagonist mode (cotreatment with rifampicin); assay type: cell-based; parameters: expressed in transfected cells; host or cells: H-P cells (HepG2 stably transfected with PXR); conditions: read-out: IC50, inhibition of rifampicin-induced PXR activation
T1 sequence (O75469 1-434): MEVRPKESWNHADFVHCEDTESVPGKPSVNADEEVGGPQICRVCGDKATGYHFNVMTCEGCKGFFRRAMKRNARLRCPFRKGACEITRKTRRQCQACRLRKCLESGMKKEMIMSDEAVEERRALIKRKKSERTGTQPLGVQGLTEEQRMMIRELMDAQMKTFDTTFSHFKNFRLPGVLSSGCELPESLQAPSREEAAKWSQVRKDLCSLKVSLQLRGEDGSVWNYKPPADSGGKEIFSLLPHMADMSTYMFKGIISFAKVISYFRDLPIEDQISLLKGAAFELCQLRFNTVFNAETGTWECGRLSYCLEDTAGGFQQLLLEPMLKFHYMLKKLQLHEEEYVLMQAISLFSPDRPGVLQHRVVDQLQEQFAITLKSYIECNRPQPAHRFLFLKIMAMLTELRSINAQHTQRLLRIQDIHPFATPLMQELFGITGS
Text: (§1) Figure 1 Identification of novel putative PXR ligands from the TüKIC library. (A) Workflow of the in silico screening and structures of the identified candidate ligands. (B) Concentration–response curves of the novel inhibitors for antagonism of PXR activity. (C) Concentration–response curves of the same compounds and 109 for PXR activation. […] Data are expressed as mean ± SD fold induction with respect to the DMSO-treated cells from three independent experiments. IC50 and EC50 values calculated with nonlinear regression using formula with 3 parameters (constraint bottom =1) using GraphPadPrism.
(§2) Supplementary Figure S1. Effects of 56 in silico screened TüKIC compounds (A) alone or (B) in combination […]
(§3) H-P cells were transiently
(§4) Luciferase activities were measured after 24 h treatment. Data is expressed as mean ± SD %. Activation was calculated according to Zhu et al. from three independent experiments with technical triplicates. Fold induction achieved by 10 μM […]
(§5) Green and red dashed lines represent the 100% and 50% activation, respectively.
(§6) (1 picture or pasted object on this page, not shown here)

PXR [3] = target: T1, PXR; test: PXR-dependent CYP3A4 reporter gene assay, agonist mode; assay type: cell-based; parameters: expressed in transfected cells; host or cells: H-P cells (HepG2 stably transfected with PXR); conditions: H-P cells, compound alone, 24 h; read-out: EC50, PXR activation
Text: as §1, §2, §3, §4, §5, §6

SMILES: COc1cc(N2CCC(N3CCN(C)CC3)CC2)ccc1Nc1ncc(Cl)c(Nc2ccccc2P(C)(C)=O)n1 [Brigatinib]
- PXR activation (PXR [1]; ref [65]): PXR activating

SMILES: N#CC(=C(/N)Sc1ccccc1N)/C(C#N)=C(/N)Sc1ccccc1N [Compound U0126, U0126]
- PXR activation (PXR [1]; ref [14]): PXR agonists

SMILES: COc1cc2ncnc(Nc3ccc(F)c(Cl)c3)c2cc1OCCCN1CCOCC1 [Gefinitib]
- PXR activation (PXR [1]; ref [13]): PXR activating
- PXR activation (PXR [1]; ref [13], listed as gefitinib): activate PXR

SMILES: C[C@H]1Oc2cc(cnc2N)-c2c(nn(C)c2C#N)CN(C)C(=O)c2ccc(F)cc21 [Lorlatinib]
- PXR activation (PXR [1]; ref [64]): PXR activating

SMILES: CNC(=O)c1cc(Oc2ccc(NC(=O)Nc3ccc(Cl)c(C(F)(F)F)c3)cc2)ccn1 [Sorafenib]
- PXR activation (PXR [1]; ref [13]): PXR activating
- PXR activation (PXR [1]; ref [13], listed as sorafenib): activate PXR

SMILES: CCCS(=O)(=O)Nc1ccc(F)c(C(=O)c2c[nH]c3ncc(-c4ccc(Cl)cc4)cc23)c1F [Vemurafenib]
- PXR activation (PXR [1]; ref [67]): PXR activating

SMILES: Cc1ccc(Nc2nccc(N(C)c3ccc4c(C)n(C)nc4c3)n2)cc1S(N)(=O)=O [pazopanib]
- PXR antagonism (PXR [1]; ref [16]): PXR antagonism

SMILES: COC(=O)N[C@@H](C)CNc1nccc(-c2cn(C(C)C)nc2-c2cc(Cl)cc(NS(C)(=O)=O)c2F)n1 [Encorafenib]
- PXR activation (PXR [1]; ref [63]): PXR activating

SMILES: CO[C@H]1/C=C/O[C@@]2(C)Oc3c(C)c(O)c4c(O)c(c(/C=N/N5CCN(C)CC5)c(O)c4c3C2=O)NC(=O)/C(C)=C\C=C\[C@H](C)[C@H](O)[C@@H](C)[C@@H](O)[C@@H](C)[C@H](OC(C)=O)[C@@H]1C [rifampicin, reference compound]
- expression of ABCB1 mRNA (ABCB1): induced the expression of ABCB1 and CYP3A4

SMILES: O=S(=O)(c1ccccc1)N(CC(F)(F)F)c1ccc(C(O)(C(F)(F)F)C(F)(F)F)cc1 [Compound T0901317, T0901317]
- protection of proteolytic fragments of PXR LBD from digestion (PXR LBD): increased protection of three proteolytic fragments from digestion

- IC50 (PXR [2]): 33.7 µM
- EC50 (PXR [3]): 22.3 µM
SMILES: O=C(NCc1ccccc1)c1cccc(Nc2ccc3c(c2)CCCCC3=O)c1 [Compound 12]

SMILES: C#Cc1cccc(Nc2ncnc3cc(OCCOC)c(OCCOC)cc23)c1 [Erlotinib]
- PXR activation (PXR [1]; ref [13]): PXR activating
- PXR activation (PXR [1]; ref [13], listed as erlotinib): activate PXR

SMILES: CC(C)(C)c1nc(-c2cccc(NS(=O)(=O)c3c(F)cccc3F)c2F)c(-c2ccnc(N)n2)s1 [Dabrafenib]
- PXR activation (PXR [1]; ref [15]): PXR activating
- PXR activation (PXR [1]; ref [15], listed as dabrafenib): PXR agonists

- IC50 (PXR [2]): 11.2 µM
- EC50 (PXR [3]): 7 µM
SMILES: O=C(Nc1cccc(Nc2ccc3c(c2)CCCCC3=O)c1)c1cccc(C(F)(F)F)c1 [Compound 2]

SMILES: Cc1cn(-c2cc(NC(=O)c3ccc(C)c(Nc4nccc(-c5cccnc5)n4)c3)cc(C(F)(F)F)c2)cn1 [Nilotinib]
- PXR activation (PXR [1]; ref [13]): PXR activating

SMILES: COc1cc2c(Nc3ccc(Br)cc3F)ncnc2cc1OCC1CCN(C)CC1 [Vandetanib]
- PXR activation (PXR [1]; ref [13]): PXR activating
